Patent US6004960A, “Pyridazinones as inhibitors of cyclooxygenase-2” (Merck Frosst Canada, Inc., priority 1998, dated 1999)

Columns and labels:
COX-2 [1] = molecular target: T1, COX-2 (Homo sapiens, UniProt P35354); test: Human whole blood assay, COX-2 (LPS-induced PGE2 production); assay type: cell-based; parameters: incubation of human whole blood with LPS, which induces COX-2; from tissue; host or cells: fresh human whole blood (volunteers), incubated with LPS; conditions: LPS-induced PGE2, 24 hours at 37° C, read-out: COX-2 (IC50 μM) HWB
T1 sequence (P35354 18-604): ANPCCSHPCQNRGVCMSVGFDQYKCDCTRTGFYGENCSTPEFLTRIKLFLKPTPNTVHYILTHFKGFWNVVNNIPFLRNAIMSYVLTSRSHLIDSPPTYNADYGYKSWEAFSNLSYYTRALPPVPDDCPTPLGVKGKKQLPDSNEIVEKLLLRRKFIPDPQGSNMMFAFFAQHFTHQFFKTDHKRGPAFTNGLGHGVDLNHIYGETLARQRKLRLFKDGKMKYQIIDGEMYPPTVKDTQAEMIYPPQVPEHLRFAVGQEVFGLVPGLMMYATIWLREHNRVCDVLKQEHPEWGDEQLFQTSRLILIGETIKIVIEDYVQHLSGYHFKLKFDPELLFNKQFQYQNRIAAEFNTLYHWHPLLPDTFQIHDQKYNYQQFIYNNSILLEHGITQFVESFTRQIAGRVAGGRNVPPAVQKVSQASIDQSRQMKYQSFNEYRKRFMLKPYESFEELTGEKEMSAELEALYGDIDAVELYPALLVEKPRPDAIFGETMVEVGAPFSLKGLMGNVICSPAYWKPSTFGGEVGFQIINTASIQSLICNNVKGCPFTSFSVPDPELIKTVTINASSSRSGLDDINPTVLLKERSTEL
Text: As well, platelets in whole blood contain a large amount of the COX-1 enzyme. Immediately following blood clotting, platelets are activated through a thrombin-mediated mechanism. This reaction results in the production of thromboxane B2 (TxB2) via activation of COX-1. Thus, the effect of test compounds on TxB2 levels following blood clotting can be examined and used as an index for COX-1 activity. Therefore, the degree of selectivity by the test compound can be determined by measuring the levels of PGE2 after LPS induction (COX-2) and […] following blood clotting (COX-1) in the same assay.
A. COX-2 (LPS-induced PGE2 production)
Fresh blood is collected in heparinized tubes by venipuncture from both male and female volunteers. The subjects have no apparent inflammatory conditions and have not taken any NSAIDs for at least 7 days prior to blood collection. Plasma is immediately obtained from a 2mL blood aliquot to use as blank (basal levels of PGE2). The remaining blood is incubated with LPS (100 μg/ml final concentration, Sigma Chem, #L-2630 from E. coli; diluted in 0.1% BSA (Phosphate buffered saline) for 5 minutes at room temperature. Five hundred μL aliquots of blood are incubated with either 2μL of vehicle (DMSO) or 2 μL of a test compound at final concentrations varying from 10nM to 30 μM for 24 hours at 37° C. At the end of the incubation, the blood is centrifuged at 12,000×g for 5 minutes to obtain plasma. A 100 μL aliquot of plasma is mixed with 400 μL of methanol for protein precipitation. The supernatant is obtained and is assayed for PGE2 using a radioimmunoassay kit (Amersham, RPA#530) after conversion of PGE2 to its methyl oximate derivative according to the manufacturer's procedure. […]

COX-2 [2] = molecular target: T1, COX-2; test: Whole cell assay for COX-2 using CHO transfected cell line (CHO [hCOX-2]), PGE2; assay type: cell-based; parameters: expressed in transfected cells; host or cells: CHO (Chinese hamster ovary), stably transfected with pCDNAIII vector; CHO [hCOX-2]; conditions: CHO [hCOX-2] cells, 10 μM AA
Experimental: Chinese hamster ovary (CHO) cell lines which have been stably transfected with an eukaryotic expression vector pCDNAIII containing either the human COX-1 or COX-2 cDNA's are used for the assay. These cell lines are referred to as CHO [hCOX-1] and CHO [hCOX-2], respectively. […] Drugs to be tested are dissolved in DMSO to 66.7-fold the highest test drug concentration. […] Cells (0.3×10^6 cells in 200 p) are preincubated with 3 AIl of the test drug or DMSO vehicle for 15 min at 37° C. […] Cells are then challenged in the presence or absence of drug with the AA/HBSS solution to yield a final concentration of 0.5 μM AA in the CHOhCOX-1] assay and a final concentration of 10 μM AA in the CHO [hCOX-2] assay. […] The samples are centrifuged at 300×g at 4° C. for 10 min, and an aliquot of the clarified supernatant is appropriately diluted for the determination of PGE2 levels using an enzyme-liked immunoassay for PGE2 (Correlate PGE2 enzyme immunoassay kit, Assay Designs, Inc.). Cyclooxygenase activity in the absence of test compounds is determined as the difference in PGE2 levels of cells challenged with arachidonic acid versus the PGE2 levels in cells mock-challenged with ethanol vehicle. Inhibition of PGE2 synthesis by test compounds is calculated as a percentage of the activity in the presence of drug versus the activity in the positive control samples.
(§1) In the assay, inhibition is determined by measuring the amount of prostaglandin E2 (PGE2) synthesized in the presence of arachidonic acid, cyclooxygenase-I or cyclooxygenase-2 and a putative inhibitor.

COX-1 = COX-1 (Homo sapiens, UniProt P23219); test: Assay of COX-1 activity from U937 cell microsomes; assay type: biochemical; parameters: Assay of COX-1 Activity from U937 cell microsomes; endogenous in cells; host or cells: U937 cells, 100,000×g microsomal pellet; conditions: PGE2, read-out: COX-1 (IC50 μM) U-937
Sequence of COX-1 (P23219 24-599): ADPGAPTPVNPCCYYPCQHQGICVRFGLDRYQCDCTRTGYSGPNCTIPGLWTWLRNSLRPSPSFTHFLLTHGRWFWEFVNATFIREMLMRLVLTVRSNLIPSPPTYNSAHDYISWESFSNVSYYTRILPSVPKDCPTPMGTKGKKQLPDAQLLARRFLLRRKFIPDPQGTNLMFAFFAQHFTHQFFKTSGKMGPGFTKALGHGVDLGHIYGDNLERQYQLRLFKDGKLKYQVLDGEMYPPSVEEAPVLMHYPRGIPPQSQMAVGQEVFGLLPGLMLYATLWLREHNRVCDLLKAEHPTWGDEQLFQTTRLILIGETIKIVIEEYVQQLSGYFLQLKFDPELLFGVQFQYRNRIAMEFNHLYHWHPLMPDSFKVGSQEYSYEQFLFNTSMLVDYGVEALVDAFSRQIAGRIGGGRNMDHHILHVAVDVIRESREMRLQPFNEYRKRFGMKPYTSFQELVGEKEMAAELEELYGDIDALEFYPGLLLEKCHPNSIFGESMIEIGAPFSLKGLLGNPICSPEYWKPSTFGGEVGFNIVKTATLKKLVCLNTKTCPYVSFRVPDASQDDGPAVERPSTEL
Experimental: Assay of COX-1 Activity from U937 cell microsomes
U 937 cells are pelleted by centrifugation at 500×g for 5 min and washed once with phosphate-buffered saline and repelleted. […] The cell suspension is sonicated 4 times for 10 sec and is centrifuged at 10,000×g for 10 min at 4° C. The supernatant is centrifuged at 100,000×g for 1 hr at 4° C. The 100,000×g microsomal pellet is resuspended in 0.1 M Tris-HCl, pH 7.4, 10 mM EDTA to approximately 7 mg protein/ml and stored at -80° C.
Microsomal preparations are thawed immediately prior to use, subjected to a brief sonication, and then diluted to a protein concentration of 125 μg/ml in 0.1 M Tris-HCl buffer, pH 7.4 containing 10 mM EDTA, 0.5 mM phenol, 1 mM reduced glutathione and 1 μM hematin. Assays are performed in duplicate in a final volume of 250 pl. Initially, 5 µl of DMSO vehicle or drug in DMSO are added to 20 μl of 0.1 M Tris-HCl buffer, pH 7.4 containing 10 mM EDTA in wells of a 96-deepwell polypropylene titre plate. 200 μl of the microsomal preparation are then added and pre-incubated for 15 min at room temperature before addition of 25 μl of […] in 0.1 M Tris-HCl and 10 mM EDTA, pH 7.4. Samples are incubated for 40 min at room temperature and the reaction is stopped by the addition of 25 pl of 1 N HCl. Samples are neutralized with 25 μl of 1 N NaOH prior to quantitation of PGE2 content by radioimmunoassay (Dupont-NEN or Amersham assay kits). Cyclooxygenase activity is defined as the difference between PGE2 levels in samples incubated in the presence of arachidonic acid and ethanol vehicle.
as §1

| SMILES | IC50 (COX-2 [1]) [µM] | IC50 (COX-2 [2]) [µM] | IC50 (COX-1) [µM] |
| --- | --- | --- | --- |
| CS(=O)(=O)c1ccc(-c2cnn(Cc3ccc(F)cc3)c(=O)c2-c2ccc(F)cc2)cc1 [Example 16, 2-(4-Fluorobenzyl)-4-(4-fluorophenyl)-5-(4-methylsulfonyl)phenyl-2H-pyridazin-3-one] | 1.1 | 0.053 | 3 to 10 |
| CS(=O)(=O)c1ccc(-c2cnn(Cc3ccccc3)c(=O)c2Oc2ccc(Cl)cn2)cc1 [Example 23, 2-Benzyl-4-(5-chloro-2-pyridyloxy)-5-(4-methylsulfonyl)phenyl-2H-pyridazin-3-one] | 0.9 | 0.26 | 3 to 10 |
| CS(=O)(=O)c1ccc(-c2cnn(Cc3ccccc3)c(=O)c2Oc2ccc(Br)cn2)cc1 [Example 34, 2-Benzyl-4-(5-bromo-2-pyridyloxy)-5-(4-methylsulfonyl)phenyl-2H-pyridazin-3-one] | 0.86 |  | > 10 |
| CS(=O)(=O)c1ccc(-c2cnn(CCc3ccccc3)c(=O)c2-c2ccc(F)cc2)cc1 [Example 33, 2-(2-Phenethyl)-4-(4-fluorophenyl)-5-(4-methylsulfonyl)phenyl-2H-pyridazin-3-one] | 8.6 |  | > 10 |
| CC(C)Cn1ncc(-c2ccc(S(C)(=O)=O)cc2)c(-c2ccc(F)cc2)c1=O [Example 31, 4-(4-Fluorophenyl)-2-(2-methylpropyl)-5-(4-methylsulfonyl)phenyl-2H-pyridazin-3-one] | 3.8 | 0.18 | > 10 |
| CS(=O)(=O)c1ccc(-c2cnn(C3CC3)c(=O)c2-c2ccc(F)cc2)cc1 [Example 18, 2-Cyclopropyl-5-(4-methylsulfonyl)phenyl-4-(4-fluorophenyl)-2H-pyridazin-3-one] |  |  | ~10 |
| CS(=O)(=O)c1ccc(-c2cnn(Cc3cccs3)c(=O)c2-c2ccc(F)cc2)cc1 [Example 27, 4-(4-Fluorophenyl)-5-(4-methylsulfonyl)phenyl-2-(thiophen-2-yl-methyl)-2H-pyridazin-3-one] |  |  | ~1 |
| CS(=O)(=O)c1ccc(-c2cnn(CCCC(F)(F)F)c(=O)c2-c2ccc(F)cc2)cc1 [Example 29, 4-(4-Fluorophenyl)-5-(4-methylsulfonyl)phenyl-2-(4,4,4-trifluorobutyl)-2H-pyridazin-3-one] | 1.3 | 0.18 | > 10 |
| CS(=O)(=O)c1ccc(-c2cnn(CCC(F)(F)F)c(=O)c2-c2ccc(F)cc2)cc1 [Example 19, 4-(4-Fluorophenyl)-5-(4-methylsulfonyl)phenyl-2-(3,3,3-trifluoropropyl)-2H-pyridazin-3-one] |  |  | > 10 |
| Cc1ccc(-c2c(-c3ccc(S(C)(=O)=O)cc3)cnn(Cc3ccccc3)c2=O)cc1 [Example 35, 2-Benzyl-4-(4-methylphenyl)-5-(4-methylsulfonyl)phenyl-2H-pyridazin-3-one] | 0.35 |  |  |
| CC(C)(C)Cn1ncc(-c2ccc(S(C)(=O)=O)cc2)c(-c2ccc(F)cc2)c1=O [Example 24, 2-(2,2-Dimethylpropyl)-4-(4-fluorophenyl)-5-(4-methylsulfonyl)phenyl-2H-pyridazin-3-one] | 2.4 | 0.16 | ~10 |
| CS(=O)(=O)c1ccc(-c2cnn(CC3CCC3)c(=O)c2-c2ccc(F)cc2)cc1 [Example 32, 2-Cyclobutylmethyl-4-(4-fluorophenyl)-5-(4-methylsulfonyl)phenyl-2H-pyridazin-3-one] | 0.56 | 0.029 | ~10 |
| CS(=O)(=O)c1ccc(-c2cnn(CC3CCCCC3)c(=O)c2-c2ccc(F)cc2)cc1 [Example 36, 2-Cyclohexylmethyl-4-(4-fluorophenyl)-5-(4-methylsulfonyl)phenyl-2H-pyridazin-3-one] |  |  | 0.3 to 1 |
| CS(=O)(=O)c1ccc(-c2cnn(Cc3cccc(F)c3)c(=O)c2-c2ccccc2)cc1 [Example 15, 2-(3-Fluorobenzyl)-5-(4-methylsulfonyl)phenyl-4-phenyl-2H-pyridazin-3-one] | 0.8 | 0.009 | > 10 |
| CS(=O)(=O)c1ccc(-c2cnn(-c3cccc(F)c3)c(=O)c2-c2ccccc2)cc1 [Example 26, 2-(3-Fluorophenyl)-5-(4-methylsulfonyl)phenyl-4-phenyl-2H-pyridazin-3-one] | 5.5 | 0.065 | > 10 |
| CS(=O)(=O)c1ccc(-c2cnn(Cc3ccncc3)c(=O)c2-c2ccc(F)cc2)cc1 [Example 20, 4-(4-Fluorophenyl)-5-(4-methylsulfonyl)phenyl-2-(4-pyridylmethyl)-2H-pyridazin-3-one] | 16.8 | 1.4 | > 10 |
| COC(=O)c1ccc(Cn2ncc(-c3ccc(S(C)(=O)=O)cc3)c(-c3ccccc3)c2=O)cc1 [Example 13, 2-(4-Carbomethoxybenzyl)-5-(4-methylsulfonyl)phenyl-4-phenyl-2H-pyridazin-3-one] | > 33 | 2 | > 10 |
| CS(=O)(=O)c1ccc(-c2cnn(Cc3ccccc3F)c(=O)c2-c2ccccc2)cc1 [Example 17, 2-(2-Fluorobenzyl)-5-(4-methylsulfonyl)phenyl-4-phenyl-2H-pyridazin-3-one] |  |  | > 10 |
